How the values were obtained:
[1] = target: hROMK (human Kir1.1) (Homo sapiens (Human), UniProt P48048); experiment: Thallium Flux Assay (FluxOR, CHO T-Rex hROMK stable cell line); type: cell-based; conditions: CHO T-Rex hROMK cells, 10-point concentration response curve; read-out: Human ROMK TH Flux IC50
Protocol: Solutions and reagents: Thallium flux assay was performed using FluxOR kit (F10017, Life Technologies). Loading buffer, assay buffer and stimulus buffer were prepared using kit components.
To prepare 10 ml of loading buffer: 10 μl of FluxOR dye (reconstituted in DMSO) was first added to 100 μl of powerload concentrate and this mix along with 100 μl of Probenicid (100×) was then added to 9.79 ml of HBSS. […] Stimulus buffer was composed of 15 mM Tl2SO4, 0.75 mM K2SO4 in FluxOR chloride free buffer (diluted to 1× using deionized water). The final concentration of Tl2SO4 and K2SO4 in the assay plate was 3 mM and 0.15 mM, respectively.
Plating and induction of cells: The CHO T-Rex hROMK (human Kir1.1) stable cell line was maintained in Ham's F12 media supplemented with 10% FBS, 1% Penicillin-Streptomycin, 500 μg/ml Zeocin and 10 μg/ml Blasticidin at 37° C. in a 5% CO2 incubator. […] The cell suspension was centrifuged at 1200 rpm for 5 min. After discarding the supernatant, the cells were resuspended in fresh growth media and cell concentration was determined using a hemocytometer. […] The assay plate was kept at 37° C. in a 5% CO2 incubator.
Assay protocol: On the day of experiment, media was removed and loading buffer was added (30 μl/well) to the assay plate. The cells were incubated in the loading buffer for 30 minutes at 37° C. The loading buffer was then replaced by assay buffer (30 μl/well) followed by addition of test compounds or controls. […] Each well was read for 90 sec at 2 sec interval and the stimulus buffer was added after 20 seconds of baseline recording. The final DMSO concentration was either 0.5 or 1% in the assay plate. Positive and negative controls were defined by addition of DMSO or 3 μM of a standard ROMK inhibitor, respectively, to the wells instead of a test compound.
A 10-point concentration response curve was used to estimate the IC50 value of test compounds.

[2] = target: hERG channels (Homo sapiens (Human), UniProt Q12809); experiment: hERG Manual Patch Clamp Assay (HEK 293 cells stably expressing hERG channels); type: cell-based; conditions: human, HEK 293 cells stably expressing hERG channels, pH 7.4
Chain of hERG channels (Q12809 whole entry): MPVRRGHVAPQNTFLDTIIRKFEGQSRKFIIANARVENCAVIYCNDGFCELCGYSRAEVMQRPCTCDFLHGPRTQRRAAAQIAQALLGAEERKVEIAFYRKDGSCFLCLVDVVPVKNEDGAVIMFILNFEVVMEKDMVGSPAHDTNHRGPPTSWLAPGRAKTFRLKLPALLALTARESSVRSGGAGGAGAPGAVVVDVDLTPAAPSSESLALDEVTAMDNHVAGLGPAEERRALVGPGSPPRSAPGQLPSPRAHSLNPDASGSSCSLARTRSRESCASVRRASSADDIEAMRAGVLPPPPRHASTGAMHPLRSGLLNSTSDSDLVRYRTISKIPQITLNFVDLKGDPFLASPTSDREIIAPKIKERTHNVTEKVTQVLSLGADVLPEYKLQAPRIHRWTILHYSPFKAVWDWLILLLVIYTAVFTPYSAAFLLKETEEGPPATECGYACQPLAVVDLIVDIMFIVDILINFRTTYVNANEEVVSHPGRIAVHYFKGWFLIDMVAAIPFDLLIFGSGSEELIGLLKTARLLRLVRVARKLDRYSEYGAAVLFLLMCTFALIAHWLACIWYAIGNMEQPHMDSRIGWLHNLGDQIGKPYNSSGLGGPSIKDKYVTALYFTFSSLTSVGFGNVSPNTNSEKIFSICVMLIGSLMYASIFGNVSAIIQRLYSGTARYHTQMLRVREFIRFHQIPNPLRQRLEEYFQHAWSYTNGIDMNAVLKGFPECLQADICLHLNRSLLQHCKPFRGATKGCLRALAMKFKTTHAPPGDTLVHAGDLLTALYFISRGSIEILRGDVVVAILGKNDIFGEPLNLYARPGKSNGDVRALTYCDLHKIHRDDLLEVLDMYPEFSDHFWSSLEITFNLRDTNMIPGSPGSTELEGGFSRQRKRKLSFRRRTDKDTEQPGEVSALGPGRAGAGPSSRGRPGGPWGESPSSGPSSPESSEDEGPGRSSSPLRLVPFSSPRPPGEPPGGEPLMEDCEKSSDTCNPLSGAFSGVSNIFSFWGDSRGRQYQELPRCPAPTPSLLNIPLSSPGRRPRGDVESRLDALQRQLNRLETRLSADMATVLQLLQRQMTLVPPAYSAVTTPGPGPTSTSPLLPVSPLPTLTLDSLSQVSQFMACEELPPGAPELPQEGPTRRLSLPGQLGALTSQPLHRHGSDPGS
Protocol: hERG electrophysiology assay: The experimental compounds were assessed for hERG activity on HEK 293 cells stably expressing hERG channels using patch clamp technique. Coverslips plated with hERG expressing cells were placed in the experimental chamber and were perfused with a solution composed of (in mM): 140 NaCl, 4 KCl, 1.8 CaCl2), 1 MgCl2, 10 Glucose, 10 HEPES (pH 7.4, NaOH) at room temperature. Borosilicate patch pipettes had tip resistances of 2-4 Mohms when filled with an internal solution containing: 130 KCl, 1 MgCl2, 1 CaCl2), 10 EGTA, 10 HEPES, 5 ATP-K2 (pH 7.2, KOH). The cells were clamped at −80 mV in whole cell configuration using an Axopatch 200B (Axon instruments, Union City, Calif.) patch clamp amplifier controlled by pClamp (Axon instruments) software. Upon formation of a gigaseal, the following voltage protocol was repeatedly (0.05 Hz) applied to record tail currents: depolarization step from −80 mV to +20 mV for 2 seconds followed by a hyperpolarization step to −65 mV (3 seconds) to elicit tail currents. Compounds were applied after stabilization of tail current. First, tail currents were recorded in presence of extracellular solution alone (control) and subsequently, in extracellular solution containing increasing compound concentrations. Each compound concentration was applied for 2-5 minutes. The percentage inhibition at each concentration was calculated as reduction in peak tail current with respect to the peak tail current recorded in the presence of control solution. Data analysis was performed in a custom made template. The percent inhibitions at different concentrations were plotted to obtain a concentration response curve, which was subsequently fitted with a four parameter equation to calculate hERG IC50 value.
A lower hERG % Inhibition value indicates less inhibition of the hERG current

Chain of hROMK (human Kir1.1) (P48048 whole entry): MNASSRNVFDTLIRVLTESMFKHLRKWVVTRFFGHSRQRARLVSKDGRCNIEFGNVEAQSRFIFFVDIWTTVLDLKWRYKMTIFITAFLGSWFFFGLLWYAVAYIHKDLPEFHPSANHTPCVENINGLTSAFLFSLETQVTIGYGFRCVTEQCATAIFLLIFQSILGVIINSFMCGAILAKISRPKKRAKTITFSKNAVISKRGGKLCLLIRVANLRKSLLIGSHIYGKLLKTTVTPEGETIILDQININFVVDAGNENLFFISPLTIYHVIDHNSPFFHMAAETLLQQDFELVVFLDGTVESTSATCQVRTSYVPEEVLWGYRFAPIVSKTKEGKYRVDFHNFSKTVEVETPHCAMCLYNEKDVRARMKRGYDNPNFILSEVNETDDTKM

Row | SMILES | IC50 [1] [nM] | inhibition at 1 µM [2] [%]
1 | Cc1c(C(O)CN(C)Cc2ccc(-n3ccc4c(C#N)cccc43)cc2)ccc2c1COC2=O (single isomer, unassigned) [Example 28-I, 1-(4-(((2-hydroxy-2-(4-methyl-1-oxo-1,3-dihydroisobenzofuran-5-yl)ethyl)(methyl)amino)methyl)phenyl)-1H-indole-4-carbonitrile] | 180 | 94
2 | Cc1cc(-c2ccc(CN(C)CC(O)c3ccc4c(c3C)COC4=O)cc2)ncc1C#N (single isomer, unassigned) [Example 31-I, 6-(4-(((2-hydroxy-2-(4-methyl-1-oxo-1,3-dihydroisobenzofuran-5-yl)ethyl)(methyl)amino)methyl)phenyl)-4-methylnicotinonitrile] | 40 | 39
3 | Cc1c([C@@H](O)CNCc2cnn(-c3cc(F)c4oc(=O)n(C)c4c3)c2)ccc2c1COC2=O (single isomer, unassigned) [Example 107] | 27 | 20
4 | Cc1cc(-n2cc(CNC(C)C(O)c3ccc4c(c3C)COC4=O)cn2)ncc1C#N (single isomer, unassigned) [Example 176-I, 6-(4-(((1-hydroxy-1-(4-methyl-1-oxo-1,3-dihydroisobenzofuran-5-yl)propan-2-yl)amino)methyl)-1H-pyrazol-1-yl)-4-methylnicotinonitrile] | 4 | 44
5 | Cc1c(C(O)CNCc2ccc(-c3ccc(C#N)c(F)c3)cc2)ccc2c1COC2=O (stereo not drawn) [Example 10-I, 3-fluoro-4′-(((2-hydroxy-2-(4-methyl-1-oxo-1,3-dihydroisobenzofuran-5-yl)ethyl)amino)methyl)-[1,1′-biphenyl]-4-carbonitrile] | 53 | 92
6 | Cc1c(C(O)CN(C)Cc2ccc(-n3cc(C#N)c4ccccc43)cc2)ccc2c1COC2=O (stereo not drawn) [Example 12-I, 1-(4-(((2-hydroxy-2-(4-methyl-1-oxo-1,3-dihydroisobenzofuran-5-yl)ethyl)(methyl)amino)methyl)phenyl)-1H-indole-3-carbonitrile] | 78 | 99
7 | Cc1c(C(O)CN(C)Cc2cnc(-c3ccc(C#N)c(F)c3)nc2)ccc2c1COC2=O (stereo not drawn) [Example 19-I, 2-fluoro-4-(5-(((2-hydroxy-2-(4-methyl-1-oxo-1,3-dihydroisobenzofuran-5-yl)ethyl)(methyl)amino)methyl)pyrimidin-2-yl)benzonitrile] | 150 | 33
8 | COc1c(CNC[C@H](O)c2ccc3c(c2C)COC3=O)cnn1-c1cc(C)c(C#N)cn1 [Example 35, (R)-6-(4-(((2-hydroxy-2-(4-methyl-1-oxo-1,3-dihydroisobenzofuran-5-yl)ethyl)amino)methyl)-5-methoxy-1H-pyrazol-1-yl)-4-methylnicotinonitrile] | 1 | 91
9 | CC(=O)N[C@@H](CNCc1cnn(-c2cc(C)c(C#N)cn2)c1)c1ccc2c(c1C)COC2=O [Example 39, (R)—N-(2-(((1-(5-cyano-4-methylpyridin-2-yl)-1H-pyrazol-4-yl)methyl)amino)-1-(4-methyl-1-oxo-1,3-dihydroisobenzofuran-5-yl)ethyl)acetamide] | 58 | 2.6
10 | Cc1c([C@@H](O)CNCc2cnn(-c3cnc(C#N)cn3)c2)ccc2c1COC2=O [Example 41, (R)-5(4-(((2-hydroxy-2-(4-methyl-1-oxo-1,3-dihydroisobenzofuran-5-yl)ethyl)amino)methyl)-1H-pyrazol-1-yl)pyrazine-2-carbonitrile] | 32 | 50
11 | Cc1c(-c2cnn(CCNC[C@H](O)c3ccc4c(c3C)COC4=O)c2)ccc2c1COC2=O [Example 43, (R)-5-(l-hydroxy-2-((2-(4-(4-methyl-1-oxo-1,3-dihydroisobenzofuran-5-yl)-1H-pyrazol-1-yl)ethyl)amino)ethyl)-4-methylisobenzofuran-1(3H)-one] | 66 | 7.1
12 | Cc1c([C@@H](O)CNCc2cnc(-n3cnc(C#N)c3)nc2)ccc2c1COC2=O [Example 45, (R)-1-(5-(((2-hydroxy-2-(4-methyl-1-oxo-1,3-dihydroisobenzofuran-5-yl)ethyl)amino)methyl)pyrimidin-2-yl)-1H-imidazole-4-carbonitrile] | 12 | 74
13 | COc1nc(-n2cc(CNC[C@H](O)c3ccc4c(c3C)COC4=O)cn2)ccc1C#N [Example 48, (R)-6-(4-(((2-hydroxy-2-(4-methyl-1-oxo-1,3-dihydroisobenzofuran-5-yl)ethyl)amino)methyl)-1H-pyrazol-1-yl)-2-methoxynicotinonitrile] | 14 | 67
14 | Cc1cnc(-n2cc(CNC[C@H](O)c3ccc4c(c3C)COC4=O)cn2)cc1C#N [Example 49, (R)-2-(4-(((2-hydroxy-2-(4-methyl-1-oxo-1,3-dihydroisobenzofuran-5-yl)ethyl)amino)methyl)-1H-pyrazol-1-yl)-5-methylisonicotinonitrile] | 32 | 18
15 | COc1cc(-n2cc(CNC[C@H](O)c3ccc4c(c3C)COC4=O)nc2C)ncc1C#N [Example 52, (R)-6-(4-(((2-hydroxy-2-(4-methyl-1-oxo-1,3-dihydroisobenzofuran-5-yl)ethyl)amino)methyl)-2-methyl-1H-imidazol-1-yl)-4-methoxynicotinonitrile] | 180 | 13
16 | COc1cc(-n2ncc3c(CNC[C@H](O)c4ccc5c(c4C)COC5=O)cccc32)ncc1C#N [Example 55] | 78 | 69
17 | Cc1cc(-n2cc(CNC[C@H](NCCO)c3ccc4c(c3C)COC4=O)cn2)ncc1C#N [Example 56, (R)-6-(4-(((2-((2-hydroxyethyl)amino)-2-(4-methyl-1-oxo-1,3-dihydroisobenzofuran-5-yl)ethyl)amino)methyl)-1H-pyrazol-1-yl)-4-methylnicotinonitrile] | 80 | 3.7
18 | COCCN[C@@H](CNCc1cnn(-c2cc(C)c(C#N)cn2)c1)c1ccc2c(c1C)COC2=O [Example 57, (R)-6-(4-(((2-((2-methoxyethyl)amino)-2-(4-methyl-1-oxo-1,3-dihydroisobenzofuran-5-yl)ethyl)amino)methyl)-1H-pyrazol-1-yl)-4-methylnicotinonitrile] | 150 | 35
19 | Cc1c([C@@H](O)CNCc2cnn(-c3ccc4oc(=O)n(C)c4c3)c2)ccc2c1COC2=O [Example 81, (R)-5-(4-(((2-hydroxy-2-(4-methyl-1-oxo-1,3-dihydroisobenzofuran-5-yl)ethyl)amino)methyl)-1H-pyrazol-1-yl)-3-methylbenzo[d]oxazol-2(3H)-one] |  | 6
20 | CCOC(=O)c1nn(-c2cc(C)c(C#N)cn2)cc1CNC[C@H](O)c1ccc2c(c1C)COC2=O [Example 98, ethyl (R)-1-(5-cyano-4-methylpyridin-2-yl)-4-(((2-hydroxy-2-(4-methyl-1-oxo-1,3-dihydroisobenzofuran-5-yl)ethyl)amino)methyl)-1H-pyrazole-3-carboxylate] |  | 54
21 | Cc1c([C@@H](O)CNCc2ccc(-n3cc(C#N)c(C4CC4)n3)nc2)ccc2c1COC2=O [Example 116, (R)-3-cyclopropyl-1-(5-(((2-hydroxy-2-(4-methyl-1-oxo-1,3-dihydroisobenzofuran-5-yl)ethyl)amino)methyl)pyridin-2-yl)-1H-pyrazole-4-carbonitrile] |  | 76

— US10723723B2, “Substituted bicycle heterocyclic derivatives useful as ROMK channel inhibitors” (BRISTOL-MYERS SQUIBB COMPANY, priority 2016, dated 2020)
